According to patent US10927115B2, “Substituted heterocycles for targeting Hsp90” (Duke University, priority 2012, dated 2021):

Assays:
[1] = tested on: MDA-MB-468 tumor; assay: Tumor labeling experiment, frozen sections under fluorescent microscope; type: in vivo, NOD/SCID mice; conditions: 1 mg/mouse intraperitoneal; from 2 to 48 h; FIG. 12
Description: MDA-MB-468 tumor cells (5 M cells/mouse) were injected to the flank of NOD/SCID mice. After 3 weeks, tumor volumes reached 400-450 mm^3. Mice were treated/untreated with intraperitoneal injection of compound 10 (1 mg/mouse). After 2, 24, 48 and 72 hours, mice were sacrificed, and tumor tissues were frozen in OCT compound. FITC(+) cells in tumor tissues (frozen sections) were analyzed under fluorescent microscope (Axio Observer). In FIG. 12, the green staining from compound 10 fluorescence appears white or light gray.

[2] = tested on: Hsp90; assay: Recovery of drug-bound protein from tumors of mice by micro anion-exchange chromatography; type: in vivo; conditions: 1 mg IV, tumors excised after 2 hours, FIG. 17
Description: Mice were injected (IV) with 1 mg of compound 10 and the tumors were excised from the animal after 2 hours. Tissue extracts were prepared and characterized by micro anion-exchange chromatography. Column fractions were analyzed for the presence of compound 10 by fluorescence and mass spectrometry.

[3] = tested on: MDA-MB-468 tumor-bearing mice; assay: Biodistribution of compound 10 in mouse xenografts by flow cytometry; type: in vivo, NOD/SCID mice; conditions: 1 mg/mouse intraperitoneally, 2, 24, 48 or 72 hours
Description: MDA-MB-468 cells (5M cells/mouse) were injected to the flank of NOD/SCID mice. When tumors reached 5-10 mm in diameter, tumor-bearing mice were intraperitoneally injected with compound 10 (1 mg/mouse, in 100 μL of DMSO). After 2, 24, 48 or 72 hours, mice were sacrificed and tumors, livers and spleens were harvested. Tumors and livers were digested with collagenase/hyarulonidase/DNase for 1 hour at 37° C., and ficolled to eliminate debris and dead cells, and then washed. Cells in tumor digest were labeled with anti-mouse CD45-biotin+anti-H2-kD-biotin for 15 min on ice, and then 15 min with streptavidin-APC. Tumor cells were analyzed by flow cytometry to detect fluorescence from compound 10. Mouse lineage negative cells were gated for the analysis. Spleen were minced and passed through the strainer. Splenocytes, liver cells and tumor cells were analyzed by flow cytometry to detect fluorescence from compound 10.
Spleen were minced and passed through a strainer to get rid of aggregations/membranous tissue. Cells were stained with violet viability dye. Viable cells were analyzed for their compound 10 uptake.
Liver tissues were minced with blades and digested with triple enzyme buffer (collagenase III, hyarulonidase, DNAse) for 1 h at 37° C., and cells were passed through a strainer to get rid of aggregations. Cells were stained with violet viability dye. Viable cells were analyzed for their compound 10 uptake.
Tumor tissues were minced with blades and digested with triple enzyme buffer (collagenase III, hyarulonidase, DNAse) for 1 h at 37° C., and cells were passed through a strainer to get rid of aggregations. Cells were stained with anti-mouse CD45-biotin/anti-H2-kd-biotin and then streptavidin-APC and violet viability dye. Viable and CD45/H2-kd negative cells were analyzed for their compound 10 uptake.

[4] = tested on: Huh7 cell line; assay: Fluorescence microscopy uptake of probe in tumor cells; type: cell-based, human; conditions: micromolar concentrations; Huh7, non-metastatic; FIG. 4
Text: (§1) In one experiment, the fluorescein compound 10 was applied at micromolar concentrations to four types of tumor cells. […] The probe (10) fluoresces to give green staining in images obtained; in FIG. 4, the green staining appears white.

[5] = tested on: BT474; assay: as above; type: cell-based, human; conditions: micromolar concentrations, FIG. 4
Text: as §1

[6] = tested on: MCF-7; assay: as above; type: cell-based, human; conditions: micromolar concentrations, FIG. 4
Text: as §1

[7] = tested on: MDA-MB 468; assay: as above; type: cell-based, human; conditions: micromolar concentrations, FIG. 4
Text: as §1

[8] = tested on: MDA MB 468 xenografts; assay: Fluorescence imaging of HSP90 expression in mouse xenografts (IVIS imager, plate reader); type: in vivo, Mice
Description: Mice with MDA MB 468 xenografts were injected with either 0.1, 0.5 or 1 mg of compound 10 intravenously. The animals were then immediately imaged in real time in an IVIS Kinetic imager (Caliper Life Science) for the presence of fluorescence at 465ex/520em. After two hours the tumors were excised and examined for the presence of compound 10.
Red image (false, 1 vs. 2) clearly demarks the tumor over background signal (appearing very dark gray in FIG. 14A).
Measurements were made in the IVIS imager or by preparing cells extracts from the tumors and measuring their fluorescence in a microtitre plate reader.

[9] = tested on: MCF7 cells; assay: Compound 10 fluorescence in MCF7 cells with anti-Hsp90 antibody or competing compound 5; type: cell-based; conditions: FIG. 6B
Description: In FIG. 6B, the compound was added in the presence of an antibody to Hsp90. […] DAPI (blue) highlights the nucleus of the cell. In FIG. 6 the green staining from compound 10 fluorescence appears white, while blue from the DAPI-stained nuclei appears gray.

[10] = tested on: TZM-bl (Hela derived) cells infected with NL4.3 virus (HIV-1); assay: Confocal microscopy of cells infected with HIV-1 treated with compound 10; type: cell-based
Description: TZM-bl (Hela derived) cells were added on glass coverslips in 24-well plates (1×10^5 cells/well) and were allowed to attach to cover slips overnight. For infection NL4.3 virus (HIV-1) was added to medium to achieve 10 ng/mL P24 protein concentration along with DEAE dextran at a final concentration 15 μg/mL. After 48 hours of infection, compound 10 was added to the medium and incubated for 1 hour at 37° C. Later the infected cells were washed twice with phosphate-buffered saline (PBS) and fixed for 20 min in 4% paraformaldehyde. They were washed twice with PBS and permeabilized for 30 min in 50% ice cold methanol on ice. Blocking was carried out using 1% FBS for 30 minutes at room temperature after two washes with PBS. Cells were then incubated for 2 hours at room temperature with antibody against HIV-1 capsid protein P24 at 1:100 dilutions in PBS. The antibody was obtained from the AIDS Reference and Reagent Program (HIV-1 p24 Monoclonal Antibody-183-H12-5C, Catalogue number: 3537). The cells were washed three times in PBS before and after 1 h of incubation with anti-mouse Texas Red secondary antibody (1:250). (Texas Red® Goat Anti-Mouse IgG (H+L), catalogue number: T682, Life technologies). […]

Cc1nn(-c2ccc(C(N)=O)c(NCCCOCCOCCOCCOCCOCCCNC(=S)Nc3ccc4c(c3)C(=O)OC43c4ccc(O)cc4Oc4cc(O)ccc43)c2)c2c1C(=O)CC(C)(C)C2 [Compound 10, 2-((1-((3′,6′-dihydroxy-3-oxo-3H-spiro[isobenzofuran-1,9′-xanthen]-5-yl)amino)-1-thioxo-6,9,12,15,18-pentaoxa-2-azahenicosan-21-yl)amino)-4-(3,6,6-trimethyl-4-oxo-4,5,6,7-tetrahydro-1H-indazol-1-yl)benzamide]
FITC signal of tumor cells in frozen sections [1]: intense FITC signal | two minor peaks of fluorescence of tumor extract ([2]; fractions 27-35): attributable to binding to degraded forms of the N terminal domain of Hsp90 | major peak of fluorescence of tumor extract ([2]; fractions 49-53): correlates with elution of full length Hsp90 | accumulation in splenocytes ([3]; FIG. 10A): little accumulation | accumulation in liver cells ([3]; FIG. 10B): little accumulation | accumulation in tumor cells ([3]; FIG. 10C): high degree of accumulation | uptake of the probe [4]: does not absorb the probe | uptake of the probe [5]: take up the probe readily | uptake of the probe [6]: take up the probe readily | uptake of the probe [7]: take up the probe readily | accumulation in tumors isolated from mice ([8]; indicated doses, IVIS imager or tumor cell extracts in plate reader, FIG. 14B, 14C): accumulates selectively within the tumor mass in a dose dependent manner | accumulation in the xenograft, real time imaging ([8]; tail vein injection, 465ex/520em, FIG. 14A): rapid accumulation | localisation of the probe in the presence of an antibody to Hsp90 [9]: accumulate at the membrane | detection of HIV infected cells ([10]; 48 hours of infection, 1 hour at 37° C., FIG. 16): can be used to detect cells infected with HIV | recognition of uninfected cells ([10]; FIG. 16 panel D): do not recognize uninfected cells
